Patent publication US12496329B2, “Methods of using and compositions including an incretin analog” (Eli Lilly and Company, priority 2021, dated 2025)
Read-outs that look alike come from different tables or passages of the source.

How the values were obtained:
[1] = MAD study in individuals with diabetes: plasma pharmacokinetics; type: in vivo, human; details: for AUC(0-inf) / Cmax / Tmax / half-life / CL/F: both sexes, human, plasma
From the text: (§1) Studies are designed to evaluate the safety, tolerability, PD and PK of the GGG tri-receptor agonist (SEQ ID NO:1) in individuals with diabetes. The MAD study is a randomized, investigator- and participant-blind, placebo-controlled, multiple-ascending dose, single-site study conducted in individuals with diabetes (i.e., females or males aged 20-70 years, inclusive, with T2DM for at least 3 months and HbA1c at lead-in and screening of ≥7.0% and ≤10.5% and treated with diet and exercise alone or a stable dose of metformin for at least 3 months prior to screening, with stable body weight for 3 months prior to randomization and with a BMI of 23-50 kg/m^2 at screening).
(§2) Dose escalation of the GGG tri-receptor agonist is assessed over 12 weeks in cohorts with a starting dose of 0.5 mg. One cohort of 13 individuals is administered 0.5 mg for 12 weeks. A second cohort of 13 individuals is administered 1.5 mg for 12 weeks. A third cohort of 15 individuals is administered 3.0 mg for 12 weeks. A fourth cohort of 15 individuals is administered 3.0 mg for 4 weeks and then administered 6.0 mg for 8 weeks. A fifth cohort of 16 individuals is administered 3.0 mg for 2 weeks, administered 6.0 mg for 2 weeks, administered 9.0 mg for 4 weeks, and then administered 12 mg for 4 weeks. Alternate dose increment steps may be introduced based on emerging safety and tolerability data from the preceding cohorts, and the dose increment steps can be reduced. As a non-limiting example, in Cohort 4, escalation from starting dose of 3 mg may occur via a step-through dose of 4.5 mg before attaining 6 mg, in Cohort 5, escalation from starting dose of 3 to 12 mg may occur via an additional step through dose level of 4.5 mg, prior to the planned doses 6 and 9 mg. In addition to these proposed alternate regimens in Cohort 4 and Cohort 5, planned dose for escalation between cohorts and within cohorts may be further reduced if warranted by safety or tolerability data.
Blood samples are collected on Day 1 at pre-dose and at 12 hr, 24 hr, 48 hr (Day 2) and 72 hr post-dose, as well as at pre-dose on Days 7, 14 and 21, to determine plasma concentration of the GGG tri-receptor agonist. Blood samples also are collected on Day 29 at pre-dose and at 12 hr, 24 hr, 48 hr and 72 hr post-dose, as well as at pre-dose on Days 36, 43 and 50, to determine plasma concentration of the GGG tri-receptor agonist. Blood samples also are collected on Day 57 at pre-dose and at 12 hr, 24 hr, 48 hr and 72 hr post-dose, as well as at pre-dose on Days 64 and 71, to determine plasma concentration of the GGG tri-receptor agonist. Blood samples also are collected on Day 78 at pre-dose and at 12 hr, 24 hr, 48 hr and 72 hr post-dose, as well as at pre-dose on Day 85, to determine plasma concentration of the GGG tri-receptor agonist. Human plasma samples from individuals administered the GGG tri-receptor agonist are analyzed at Q2 Solutions (Ithaca, NY). Concentrations of the GGG tri-receptor agonist are assayed using a validated liquid chromatography high resolution mass spectrometry method, where the lower limits of quantification are 1 ng/ml or 3 ng/ml and the upper limit of quantification is 500 ng/mL.
Blood samples are likewise collected at Weeks 14 and 16 for PK analysis. As above, plasma concentrations are used to compute PK parameters using standard non-compartmental methods in a validated software program (Phoenix WinNonlin Version 8.1).

[2] = MAD study in individuals with diabetes: safety and tolerability; type: in vivo, human
From the text: as §1, §2
In the event of drug hypersensitivity reactions (immediate or nonimmediate), samples are collected for antidrug antibody (ADA) analysis as close to the onset of the event as possible, at the resolution of the event, and 30 days following the onset of the event. Samples are analyzed using a validated electrochemiluminescence immunosorbent assay at BioAgilytix Labs (Durham, NC).

[3] = 12 mg, 3.0, 6.0, 9.0, 12.0 mg QW, Day 1
[4] = 12 mg, 3.0, 6.0, 9.0, 12.0 mg QW, Day 29
[5] = 12 mg, 3.0, 6.0, 9.0, 12.0 mg QW, Day 57
[6] = 12 mg, 3.0, 6.0, 9.0, 12.0 mg QW, Day 78

CC[C@H](C)[C@H](NC(=O)[C@H](Cc1ccccc1)NC(=O)[C@H](C)NC(=O)C(C)(C)NC(=O)[C@H](CCC(N)=O)NC(=O)[C@H](C)NC(=O)[C@H](CCCCNC(=O)COCCOCCNC(=O)CC[C@H](NC(=O)CCCCCCCCCCCCCCCCCCC(=O)O)C(=O)O)NC(=O)[C@H](CCCCN)NC(=O)[C@H](CC(=O)O)NC(=O)[C@H](CC(C)C)NC(=O)[C@](C)(CC(C)C)NC(=O)[C@@H](NC(=O)[C@H](CO)NC(=O)[C@H](Cc1ccc(O)cc1)NC(=O)[C@H](CC(=O)O)NC(=O)[C@H](CO)NC(=O)[C@@H](NC(=O)[C@H](Cc1ccccc1)NC(=O)[C@@H](NC(=O)CNC(=O)[C@H](CCC(N)=O)NC(=O)C(C)(C)NC(=O)[C@@H](N)Cc1ccc(O)cc1)[C@@H](C)O)[C@@H](C)O)[C@@H](C)CC)C(=O)N[C@@H](CCC(=O)O)C(=O)N[C@@H](Cc1ccc(O)cc1)C(=O)N[C@@H](CC(C)C)C(=O)N[C@@H](CC(C)C)C(=O)N[C@@H](CCC(=O)O)C(=O)NCC(=O)NCC(=O)N1CCC[C@H]1C(=O)N[C@@H](CO)C(=O)N[C@@H](CO)C(=O)NCC(=O)N[C@@H](C)C(=O)N1CCC[C@H]1C(=O)N1CCC[C@H]1C(=O)N1CCC[C@H]1C(=O)N[C@@H](CO)C(N)=O [GGG tri-receptor agonist, Y-Aib-QGTFTSDYSI-αMeL-LDKK((2-[2-(2-amino-ethoxy)-ethoxy]-acetyl)-(γGlu)-CO-(CH2)18-CO2H)AQ-Aib-AFIEYLLEGGPSSGAPPPS-NH2]
AUC (0-τ) and Cmax dose proportionality ([1]; 3.0, 6.0 and 12.0 mg, Week 12): increase in a dose-proportional manner
AUC(0-inf) ([1]; 0.5 mg, 0.5 mg QW, Day 1): 7180 ng·h/mL
Cmax ([1]; 0.5 mg, 0.5 mg QW, Day 1): 54.1 ng/mL
Tmax ([1]; 0.5 mg, 0.5 mg QW, Day 1): 48 h
AUC(0-inf) ([1]; 0.5 mg, 0.5 mg QW, Day 29): 14400 ng·h/mL
Cmax ([1]; 0.5 mg, 0.5 mg QW, Day 29): 118 ng/mL
Tmax ([1]; 0.5 mg, 0.5 mg QW, Day 29): 23.8 h
AUC(0-inf) ([1]; 0.5 mg, 0.5 mg QW, Day 57): 11800 ng·h/mL
Cmax ([1]; 0.5 mg, 0.5 mg QW, Day 57): 86.8 ng/mL
Tmax ([1]; 0.5 mg, 0.5 mg QW, Day 57): 36 h
AUC(0-inf) ([1]; 1.5 mg, 1.5 mg QW, Day 1): 22600 ng·h/mL
Cmax ([1]; 1.5 mg, 1.5 mg QW, Day 1): 228 ng/mL
Tmax ([1]; 1.5 mg, 1.5 mg QW, Day 1): 24 h
AUC(0-inf) ([1]; 1.5 mg, 1.5 mg QW, Day 29): 35900 ng·h/mL
Cmax ([1]; 1.5 mg, 1.5 mg QW, Day 29): 252 ng/mL
Tmax ([1]; 1.5 mg, 1.5 mg QW, Day 29): 24 h
AUC(0-inf) ([1]; 3 mg, 3.0 mg QW, Day 1): 33800 ng·h/mL
Cmax ([1]; 3 mg, 3.0 mg QW, Day 1): 290 ng/mL
Tmax ([1]; 3 mg, 3.0 mg QW, Day 1): 23.8 h
AUC(0-inf) ([1]; 3 mg, 3.0 mg QW, Day 29): 68100 ng·h/mL
Cmax ([1]; 3 mg, 3.0 mg QW, Day 29): 531 ng/mL
Tmax ([1]; 3 mg, 3.0 mg QW, Day 29): 12.2 h
AUC(0-inf) ([1]; 3 mg, 3.0 mg QW, Day 57): 66300 ng·h/mL
Cmax ([1]; 3 mg, 3.0 mg QW, Day 57): 562 ng/mL
Tmax ([1]; 3 mg, 3.0 mg QW, Day 57): 24 h
AUC(0-inf) ([1]; 3 mg, 3.0 mg QW, Day 78): 70100 ng·h/mL
Cmax ([1]; 3 mg, 3.0 mg QW, Day 78): 571 ng/mL
Tmax ([1]; 3 mg, 3.0 mg QW, Day 78): 12.2 h
half-life ([1]; 3 mg, 3.0 mg QW, Day 78, read-out: t½ (converted)): 137 h
AUC(0-inf) ([1]; 6 mg, 3.0, 6.0 mg QW, Day 1): 34500 ng·h/mL
Cmax ([1]; 6 mg, 3.0, 6.0 mg QW, Day 1): 292 ng/mL
Tmax ([1]; 6 mg, 3.0, 6.0 mg QW, Day 1): 24 h
AUC(0-inf) ([1]; 6 mg, 3.0, 6.0 mg QW, Day 29): 86400 ng·h/mL
Cmax ([1]; 6 mg, 3.0, 6.0 mg QW, Day 29): 711 ng/mL
Tmax ([1]; 6 mg, 3.0, 6.0 mg QW, Day 29): 12.1 h
AUC(0-inf) ([1]; 6 mg, 3.0, 6.0 mg QW, Day 57): 136000 ng·h/mL
Cmax ([1]; 6 mg, 3.0, 6.0 mg QW, Day 57): 1170 ng/mL
Tmax ([1]; 6 mg, 3.0, 6.0 mg QW, Day 57): 24 h
AUC(0-inf) ([1]; 6 mg, 3.0, 6.0 mg QW, Day 78): 137000 ng·h/mL
Cmax ([1]; 6 mg, 3.0, 6.0 mg QW, Day 78): 1060 ng/mL
Tmax ([1]; 6 mg, 3.0, 6.0 mg QW, Day 78): 24 h
half-life ([1]; 6 mg, 3.0, 6.0 mg QW, Day 78, read-out: t½ (converted)): 135 h
AUC(0-inf) [1, 3]: 31800 ng·h/mL
Cmax [1, 3]: 265 ng/mL
Tmax [1, 3]: 23.9 h
AUC(0-inf) [1, 4]: 150000 ng·h/mL
Cmax [1, 4]: 1320 ng/mL
Tmax [1, 4]: 23.8 h
AUC(0-inf) [1, 5]: 262000 ng·h/mL
Cmax [1, 5]: 2070 ng/mL
Tmax [1, 5]: 24 h
AUC(0-inf) [1, 6]: 293000 ng·h/mL
Cmax [1, 6]: 2410 ng/mL
Tmax [1, 6]: 23.9 h
half-life ([1]; 12 mg, 3.0, 6.0, 9.0, 12.0 mg QW, Day 78, read-out: t½ (converted)): 143 h
Tmax ([1]; MAD study, after dosing): 12 to 72 h
half-life ([1]; MAD study, read-out: mean half-life): ~144 h
half-life ([1]; subcutaneous, across all dose levels, read-out: geometric mean t½): 135 to 143 h
CL/F ([1]; 3.0 mg QW, Day 78): 0.713 mL/min
CL/F ([1]; 3.0, 6.0 mg QW, Day 78): 0.728 mL/min
CL/F ([1]; 3.0, 6.0, 9.0, 12.0 mg QW, Day 78): 0.683 mL/min
systolic blood pressure ([2]; 6.0 mg and 12.0 mg arms): dose-dependent decrease in systolic blood pressure
GI events (nausea, diarrhea, vomiting) ([2]; MAD study): mostly mild in severity and dose related
heart rate ([2]; MAD study): Dose-dependent increases in heart rate
tolerability ([2]; MAD study, 12 weeks QW): well tolerated
incidences of AEs ([2]; doses of ≥6.0 mg): increased incidences of AEs
safety concerns ([2]; multiple SC doses of 0.5 to 12.0 mg): no unexpected safety concerns
tolerability ([2]; once-weekly 0.5, 1.5 and 3.0 mg for 12 weeks): well tolerated
